# Measurements as given in patent publication EP0520604A2, “Monoclonal antibody against pentacyclic oleanan-type triterpene and use thereof” (MINOPHAGEN PHARMACEUTICAL COMPANY, priority 1991, dated 1992).
# Columns and labels:
# Test in all cases: Inhibition ELISA (cross reactivity), solidified GA-BSA conjugate as antigen
# Type in all cases: binding, mouse
# [1] = test system: monoclonal antibody produced by a strain GA2-20-1; details: for 50 % inhibition concentration (IC 50): monoclonal antibody 2-20-1, 50-fold diluted, from inhibition curves; for cross reactivity: monoclonal antibody 2-20-1, values in parenthesis, relative to (GA)
# Experimental: (§1) Inhibition ELISA comprises sequentially incubating the solidified GA-BSA conjugate with glycyrrhetic acid or a sample together with the antibody, bonding the enzyme-labeled anti-mouse IgG to the resulting incubation mixture, thereby measuring the enzyme activity. The antibody bonded to the antigen contained in the sample cannot be bonded to the solidified antigen, and therefore, the amount of the enzyme bonded is reduced. By measuring the enzyme activity, glycyrrhetic acid contained in the sample can be measured. The amount of glycyrrhizin can be determined by measuring glycyrrhetic acid generated by the acid hydrolysis of glycyrrhizin.
# (§2) According to direct ELISA, the antibody solution is divided into each well; according to inhibition ELISA, glycyrrhetic acid or a sample solution is divided into each well together with the antibody solution. After left to stand at ambient temperature, the wells are washed before the division of an enzyme-labeled anti-mouse IgG solution, and then the wells are left to stand at ambient temperature.
# (§3) After washing each well again, a solution of a dye which develops color on enzyme reaction is divided into the washed wells for reaction. After the completion of the reaction, the absorbance of each well at 405 nm is measured with an immunoreader. By comparing the results with the values obtained from known amounts of the antigen, glycyrrhetic acid can be assayed.
# (§4) The cross reactivity to the following individual compounds was examined according to inhibition ELISA. • (1) 18α H-Olean-11-oxo-12ene-30-oic acid • (2) Olean-12ene-3,11-dioxo-30-oic acid • (3) Olean-12ene-3α-hydroxy-11-oxo-30-oic- acid • (4) Olean-12ene-11-oxo-3β, 30-diol • (5) Cholic acid • (6) Deoxy cholic acid • (7) Glycyrrhetlc acid (GA) • (8) Glycyrrhizin (GL) These are illustrated as compounds (1), (2), (3), (4), (5), (6), (GA) and (GL).
# (§5) One hundred µℓ each of the GA-BSA solution (10 µg/mℓ) was divided in the wells of a 96-well microtiter plate and left to stand overnight at 4° C. After removing the antigen solution, 100 µℓ each of the BSA-PBS was divided and left to stand at 37° C for one hour.
# (§6) The 50-fold diluted antibody and each of the compounds were individually adjusted to 10 ng/mℓ, 100 ng/mℓ and 1000 ng/mℓ. Fifty µℓ each of the adjusted solution was divided in each well. After left to stand at ambient temperature for 30 minutes, the wells were washed three times with the PBS containing 0.05 % Tween 20, and washed twice with PBS, followed by the division of the 5000-fold dilution of goat anti-mouse IgG labeled with alkaline phosphatase, and left to stand at room temperature for 30 minutes.
# (§7) After each well was washed following the same procedure described above, 100 µℓ each of 1M diethanolamine buffer (pH 9.8) containing p-nitrophenyl phosphate at a concentration of 1 mg/mℓ was divided and reacted at 37° C for 30 minutes. After the completion of the reaction, 2M sodium hydroxide was added. Then, the absorbance at 405 nm of each well was measured with an immunoreader.
# (§8) From the inhibition curves obtained, 50 % inhibition concentration (IC 50) of each compound was determined. The antibody generated by the strain GA2-20-1, among the three strains, had the highest specificity.
# [2] = test system: monoclonal antibody produced by a strain GA2-20-3; details: for 50 % inhibition concentration (IC 50): monoclonal antibody 2-20-3, 50-fold diluted, from inhibition curves; for cross reactivity: monoclonal antibody 2-20-3, values in parenthesis, relative to (GA)
# Experimental: as §1, §2, §3, §4, §5, §6, §7, §8
# [3] = test system: monoclonal antibody produced by a strain GA2-20-6; details: for 50 % inhibition concentration (IC 50): monoclonal antibody 2-20-6, 50-fold diluted, from inhibition curves; for cross reactivity: monoclonal antibody 2-20-6, values in parenthesis, relative to (GA)
# Experimental: as §1, §2, §3, §4, §5, §6, §7, §8
Compound,50 % inhibition concentration (IC 50) [1],cross reactivity [1],50 % inhibition concentration (IC 50) [2],cross reactivity [2],50 % inhibition concentration (IC 50) [3],cross reactivity [3]
"CC1(C)[C@@H](O[C@H]2O[C@H](C(=O)O)[C@@H](O)[C@H](O)[C@H]2O[C@@H]2O[C@H](C(=O)O)[C@@H](O)[C@H](O)[C@H]2O)CC[C@]2(C)[C@H]3C(=O)C=C4[C@@H]5C[C@@](C)(C(=O)O)CC[C@]5(C)CC[C@@]4(C)[C@]3(C)CC[C@@H]12 [(GL), Glycyrrhizin]",>1 µg/mL,(<1.6) %,>1 µg/mL,(<1.6) %,>1 µg/mL,(<1.6) %
Glycyrrhetlc acid [(GA)],0.0159 µg/mL,–,0.0329 µg/mL,–,0.0444 µg/mL,–
"CC1(C)[C@H](O)CC[C@]2(C)[C@H]3C(=O)C=C4[C@@H]5C[C@@](C)(C(=O)O)CC[C@]5(C)CC[C@@]4(C)[C@]3(C)CC[C@@H]12 [(3), Olean-12ene-3α-hydroxy-11-oxo-30-oic-acid]",0.6954 µg/mL,( 2.3) %,0.6765 µg/mL,( 4.9) %,0.7933 µg/mL,( 5.6) %
"C[C@H](CCC(=O)O)[C@H]1CC[C@H]2[C@@H]3[C@H](O)C[C@@H]4C[C@H](O)CC[C@]4(C)[C@H]3C[C@H](O)[C@]12C [compound (5), Cholic acid]",>1 µg/mL,(<1.6) %,>1 µg/mL,(<1.6) %,>1 µg/mL,(<1.6) %
18α H-Olean-11-oxo-12ene-30-oic acid [compound (1)],0.0876 µg/mL,(18.2) %,0.0878 µg/mL,(37.5) %,0.0975 µg/mL,(45.5) %
"CC1(C)C(=O)CC[C@]2(C)[C@H]3C(=O)C=C4[C@@H]5C[C@@](C)(C(=O)O)CC[C@]5(C)CC[C@@]4(C)[C@]3(C)CC[C@@H]12 [(2), Olean-12ene-3,11-dioxo-30-oic acid]",0.8317 µg/mL,( 1.9) %,0.9571 µg/mL,( 3.4) %,>1 µg/mL,(<1.6) %
"CC1(C)[C@@H](O)CC[C@]2(C)[C@H]3C(=O)C=C4[C@@H]5C[C@@](C)(CO)CC[C@]5(C)CC[C@@]4(C)[C@]3(C)CC[C@@H]12 [(4), Olean-12ene-11-oxo-3β, 30-diol]",0.4372 µg/mL,( 3.6) %,0.4767 µg/mL,( 6.9) %,0.4254 µg/mL,(10.4) %
